Measured values from PubChem BioAssay (NCI).
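Following 48 hours of exposure in 96-well plates, responses at five concentrations were used to interpolate endpoints linearly. GI50 is the concentration that inhibits growth by half. The concentration for full growth arrest is given as TGI.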

Test system: M19-MEL melanoma
Assay: inhibition of tumour cell growth, NCI panel, 48 h

Structure (SMILES)	TGI [µM]
O=C(CC1Sc2ccccc2NC1=O)Nc1ccccc1[N+](=O)[O-] (centres undefined)	> 100
CCn1cnc2c(=S)nc(N)[nH]c21	> 100
CON(C)C(=O)C(Cc1ccccc1)NC(=O)OCc1ccccc1 (centres undefined)	> 100
Cc1ccc(C(=O)OC(C(=O)O)C(OC(=O)c2ccc(C)cc2)C(=O)O)cc1 (centres undefined) (tested in a mixture with another compound)	15.1

Test system: HOP-18 NSCLC
Assay: inhibition of tumour cell growth, NCI panel, 48 h

Structure (SMILES)	TGI [µM]
O=C(CC1Sc2ccccc2NC1=O)Nc1ccccc1[N+](=O)[O-] (centres undefined)	> 100
CC1NC(=O)C(C)C(c2ccccc2)N(N=O)C1c1ccccc1 (centres undefined)	> 100
Cc1ccc(C(=O)OC(C(=O)O)C(OC(=O)c2ccc(C)cc2)C(=O)O)cc1 (centres undefined) (tested in a mixture with another compound)	4.39

Test system: T-47D breast
Assay: inhibition of tumour cell growth, NCI panel, 48 h

Structure (SMILES)	TGI [µM]	GI50 [µM]
CCOC(=O)c1csc(NC(=O)CN2CCCC2)n1	> 100	–
O=C1OC(c2ccccc2)=N/C1=C\c1ccc([N+](=O)[O-])cc1	93.9	–
O=C(O)Cc1ccc([N+](=O)[O-])cc1[N+](=O)[O-]	> 100	–
COc1cc(/C=C2\CN(S(=O)(=O)c3ccc(C)cc3)C/C(=C\c3cc(CN4CCCC4)c(O)c(OC)c3)C2=O)cc(CN2CCCC2)c1O	3.79	1.42
CCCCCCOc1ccc(/C=N/Nc2cc(C)nc3ccc(Cl)cc23)cc1	3.97	1.98

Test system: MALME-3M melanoma
Assay: inhibition of tumour cell growth, NCI panel, 48 h

Structure (SMILES)	TGI [µM]	GI50 [µM]
O=C(CC1Sc2ccccc2NC1=O)Nc1ccccc1[N+](=O)[O-] (centres undefined)	> 100	–
CCn1cnc2c(=S)nc(N)[nH]c21	> 100	–
CC1NC(=O)C(C)C(c2ccccc2)N(N=O)C1c1ccccc1 (centres undefined)	> 100	–
CO[C@](C(=O)OC[C@H]1[C@@H](COC(C)=O)[C@@H]2O[C@H]1c1cc3c(cc12)OCO3)(c1ccccc1)C(F)(F)F	> 100	–
O=C(O)Cc1ccc([N+](=O)[O-])cc1[N+](=O)[O-]	> 100	–
CON(C)C(=O)C(Cc1ccccc1)NC(=O)OCc1ccccc1 (centres undefined)	> 100	–
COc1cc(/C=C2\CN(S(=O)(=O)c3ccc(C)cc3)C/C(=C\c3cc(CN4CCCC4)c(O)c(OC)c3)C2=O)cc(CN2CCCC2)c1O	3.3	1.71
Cc1ccc(C(=O)OC(C(=O)O)C(OC(=O)c2ccc(C)cc2)C(=O)O)cc1 (centres undefined) (tested in a mixture with another compound)	12	–
CCCCCCOc1ccc(/C=N/Nc2cc(C)nc3ccc(Cl)cc23)cc1	3.44	1.91

Test system: DLD-1 colon
Assay: inhibition of tumour cell growth, NCI panel, 48 h

Structure (SMILES)	TGI [µM]
O=C(CC1Sc2ccccc2NC1=O)Nc1ccccc1[N+](=O)[O-] (centres undefined)	> 100
CCn1cnc2c(=S)nc(N)[nH]c21	> 100
CC1NC(=O)C(C)C(c2ccccc2)N(N=O)C1c1ccccc1 (centres undefined)	> 100
CON(C)C(=O)C(Cc1ccccc1)NC(=O)OCc1ccccc1 (centres undefined)	> 100
Cc1ccc(C(=O)OC(C(=O)O)C(OC(=O)c2ccc(C)cc2)C(=O)O)cc1 (centres undefined) (tested in a mixture with another compound)	21.3

Test system: DMS 273 small cell lung
Assay: inhibition of tumour cell growth, NCI panel, 48 h

Structure (SMILES)	TGI [µM]
O=C(CC1Sc2ccccc2NC1=O)Nc1ccccc1[N+](=O)[O-] (centres undefined)	> 100
CCn1cnc2c(=S)nc(N)[nH]c21	> 100
CC1NC(=O)C(C)C(c2ccccc2)N(N=O)C1c1ccccc1 (centres undefined)	> 100
CON(C)C(=O)C(Cc1ccccc1)NC(=O)OCc1ccccc1 (centres undefined)	> 100
Cc1ccc(C(=O)OC(C(=O)O)C(OC(=O)c2ccc(C)cc2)C(=O)O)cc1 (centres undefined) (tested in a mixture with another compound)	10.7

Test system: DMS 114 small cell lung
Assay: inhibition of tumour cell growth, NCI panel, 48 h

Structure (SMILES)	TGI [µM]
CCn1cnc2c(=S)nc(N)[nH]c21	> 100
CC1NC(=O)C(C)C(c2ccccc2)N(N=O)C1c1ccccc1 (centres undefined)	> 100
CON(C)C(=O)C(Cc1ccccc1)NC(=O)OCc1ccccc1 (centres undefined)	> 100
Cc1ccc(C(=O)OC(C(=O)O)C(OC(=O)c2ccc(C)cc2)C(=O)O)cc1 (centres undefined) (tested in a mixture with another compound)	12.9

Test system: MDA-N
Assay: inhibition of tumour cell growth, NCI panel, 48 h

Structure (SMILES)	TGI [µM]
CCOC(=O)c1csc(NC(=O)CN2CCCC2)n1	> 100
O=C1OC(c2ccccc2)=N/C1=C\c1ccc([N+](=O)[O-])cc1	> 100
CO[C@](C(=O)OC[C@H]1[C@@H](COC(C)=O)[C@@H]2O[C@H]1c1cc3c(cc12)OCO3)(c1ccccc1)C(F)(F)F	> 100
O=C(O)Cc1ccc([N+](=O)[O-])cc1[N+](=O)[O-]	> 100

Test system: HS 578T breast
Assay: inhibition of tumour cell growth, NCI panel, 48 h

Structure (SMILES)	TGI [µM]
CCOC(=O)c1csc(NC(=O)CN2CCCC2)n1	> 100
